Assay results: the CheMixHub ionic liquid set

Assay: xn = mol fraction of the nth substance listed

CS(=O)(=O)[O-].C[N+](C)(CCO)CCO + CO
viscosity [mPa·s], 101 kPa
Details | x1 = 0.1 | x1 = 0.1996 | x1 = 0.3001 | x1 = 0.4004 | x1 = 0.5005 | x1 = 0.5976 | x1 = 0.7022 | x1 = 0.8012 | x1 = 0.9012 | x1 = 1
298.15 K | 2.03 | 5.81 | 14.8 | 34.4 | 74.1 | 164 | 316 | 566 | 940 | 1495
303.15 K | 1.85 | 5.12 | 12.57 | 28.1 | 58.3 | 125.1 | 231 | 402 | 656 | 1021
308.15 K | 1.69 | 4.55 | 10.99 | 23.3 | 46.7 | 86.6 | 175 | 296 | 469 | 716
313.15 K | 1.55 | 4.06 | 9.61 | 19.6 | 38 | 68.4 | 134.1 | 222 | 344 | 513
318.15 K | 1.431 | 3.64 | 8.35 | 16.6 | 31.3 | 54.9 | 105.2 | 170 | 258 | 378
323.15 K | 1.323 | 3.29 | 7.37 | 14.24 | 26.1 | 44.7 | 75.7 | 132.2 | 197 | 282

OCCO + CC[n+]1ccn(C)c1.O=S(=O)([O-])C(F)(F)F
100 kPa, x1 = 1
Details | viscosity [mPa·s]
308.15 K | 11.16
318.15 K | 7.91

CCCCCCCC[N+]1(C)CCCC1.O=S(=O)([N-]S(=O)(=O)C(F)(F)F)C(F)(F)F + CCCCOC(C)=O
298.15 K, 100 kPa
Details | electrical conductivity [S/m] | viscosity [mPa·s]
x2 = 0.2414 | 0.145 | –
x2 = 0.2589 | – | 51.3
x2 = 0.6824 | 0.353 | –
x2 = 0.7923 | 0.355 | –
x2 = 0.8427 | 0.326 | –

O=S(=O)([N-]S(=O)(=O)C(F)(F)F)C(F)(F)F.[Li+] + O=S(=O)([O-])C(F)(F)F.[Li+] + O
viscosity [mPa·s], 100 kPa
Details | x2 = 0, x1 = 0.112 | x2 = 0, x1 = 0.1896 | x2 = 0, x1 = 0.2333 | x2 = 0, x1 = 0.2547 | x2 = 0, x1 = 0.2741
298.15 K | 5.2 | 15.8 | 30.7 | 42.3 | 54.1
308.15 K | 4.3 | 11.5 | 21.5 | 29 | 36.1
318.15 K | 3.4 | 8.6 | 15.8 | 20.9 | 25.5
328.15 K | 2.8 | 6.6 | 12 | 15.6 | 18.7

CCn1cc[nH+]c1.O=S(=O)([N-]S(=O)(=O)C(F)(F)F)C(F)(F)F + O
Details | electrical conductivity [S/m] | viscosity [mPa·s]
297.55 K, 101 kPa, x1 = 0.5 | – | 15.8
297.55 K, 101 kPa, x1 = 0.889 | – | 44.9
303.15 K, 100 kPa, x1 = 0.366 | 1.77 | –
303.15 K, 100 kPa, x1 = 0.403 | 1.6 | –
303.15 K, 100 kPa, x1 = 0.427 | 1.53 | –
303.15 K, 100 kPa, x1 = 0.455 | 1.44 | –
303.15 K, 100 kPa, x1 = 0.491 | 1.35 | –
303.15 K, 100 kPa, x1 = 0.519 | 1.24 | –
303.15 K, 100 kPa, x1 = 0.554 | 1.15 | –
303.15 K, 100 kPa, x1 = 0.592 | 1.05 | –
303.15 K, 100 kPa, x1 = 0.634 | 0.948 | –
303.15 K, 100 kPa, x1 = 0.684 | 0.845 | –
303.15 K, 100 kPa, x1 = 0.712 | 0.785 | –
303.15 K, 100 kPa, x1 = 0.743 | 0.729 | –
303.15 K, 100 kPa, x1 = 0.776 | 0.672 | –
303.15 K, 100 kPa, x1 = 0.811 | 0.619 | –
303.15 K, 100 kPa, x1 = 0.851 | 0.57 | –
303.15 K, 100 kPa, x1 = 0.896 | 0.516 | –
303.15 K, 100 kPa, x1 = 0.943 | 0.464 | –
303.15 K, 100 kPa, x2 = 0.003 | 0.424 | –
